Reference: the supplement of paper PMC6045584
± gives the standard deviation of the averaged measurements.

Assays:
[1] = compound: COc1ccc(-c2cc3c(C)nc(N)nc3n([C@H]3CC[C@H](OCCO)CC3)c2=O)cn1; assay: surviving fraction relative to DMSO-only wells; higher = less growth inhibition; conditions: exposure time: 5 days
How it was run: (§1)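 Lines were retained only if, across three screens, replicate Pearson r was >0.7 and median Z' was >0.3. Viability was measured as CellTiter-Glo luminescence and reported as surviving fraction relative to the median of DMSO-only wells. Readings followed 10 minutes at room temperature, after log-phase tumour cells seeded at 250–500 per well in 384-well plates had been exposed, from 24 hours after seeding, continuously for five days to inhibitors at 0.5, 1, 5, 10, 50, 100, 500 and 1000 nM.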

[2] = compound: Cn1c(=O)n(-c2ccc(C(C)(C)C#N)cc2)c2c3cc(-c4cnc5ccccc5c4)ccc3ncc21 [BEZ-235]; assay: as above; conditions: exposure time: 5 days
How it was run: as §1

Test System	surviving fraction ([1]; 0.5 nM)	surviving fraction ([1]; 1 nM)	surviving fraction ([1]; 5 nM)	surviving fraction ([1]; 10 nM)	surviving fraction ([1]; 50 nM)	surviving fraction ([1]; 100 nM)	surviving fraction ([1]; 500 nM)	surviving fraction ([1]; 1000 nM)	surviving fraction ([2]; 0.5 nM)	surviving fraction ([2]; 1 nM)	surviving fraction ([2]; 5 nM)	surviving fraction ([2]; 10 nM)	surviving fraction ([2]; 50 nM)	surviving fraction ([2]; 100 nM)	surviving fraction ([2]; 500 nM)	surviving fraction ([2]; 1000 nM)
22RV1 PROSTATE	1.03 ± 0.041	0.999 ± 0.072	0.876 ± 0.085	0.796 ± 0.021	0.516 ± 0.065	0.312 ± 0.043	0.106 ± 0.019	0.0857 ± 0.0063	1.04 ± 0.047	1.02 ± 0.085	0.992 ± 0.097	0.949 ± 0.096	0.448 ± 0.025	0.339 ± 0.065	0.126 ± 0.017	0.119 ± 0.018
93VU HEADNECK	0.94 ± 0.015	0.995 ± 0.14	0.923 ± 0.075	0.979 ± 0.044	0.582 ± 0.14	0.351 ± 0.068	0.0697 ± 0.0051	0.047 ± 0.0046	0.972 ± 0.12	0.985 ± 0.13	1.1 ± 0.11	1.08 ± 0.059	0.921 ± 0.035	0.71 ± 0.1	0.308 ± 0.053	0.334 ± 0.043
143B BONE	0.995 ± 0.0057	0.992 ± 0.014	1.01 ± 0.039	0.966 ± 0.025	0.946 ± 0.011	0.896 ± 0.02	0.391 ± 0.016	0.267 ± 0.013	1.03 ± 0.047	1.04 ± 0.047	1.031 ± 0.0028	1.0385 ± 0.00071	0.852 ± 0.033	0.735 ± 0.017	0.36 ± 0.017	0.336 ± 0.0028
A549 LUNG	0.958 ± 0.049	0.939 ± 0.044	0.927 ± 0.026	0.936 ± 0.035	1.02 ± 0.032	0.886 ± 0.016	0.325 ± 0.024	0.158 ± 0.0036	0.997 ± 0.054	1.01 ± 0.052	1.01 ± 0.074	1.01 ± 0.083	1.03 ± 0.033	0.66 ± 0.022	0.26 ± 0.022	0.221 ± 0.0093
ASKA SYNOVIAL	0.923 ± 0.037	0.896 ± 0.064	0.878 ± 0.076	0.776 ± 0.054	0.462 ± 0.019	0.366 ± 0.025	0.187 ± 0.011	0.229 ± 0.026	1.06 ± 0.03	0.994 ± 0.023	0.896 ± 0.032	0.9767 ± 0.0031	0.775 ± 0.046	0.652 ± 0.016	0.418 ± 0.02	0.436 ± 0.019
BT20 BREAST	1.13 ± 0.1	1.11 ± 0.097	1.12 ± 0.019	1.09 ± 0.063	1 ± 0.048	0.72 ± 0.037	0.216 ± 0.004	0.141 ± 0.021	1.13 ± 0.062	1.07 ± 0.18	1.04 ± 0.14	1.03 ± 0.082	0.619 ± 0.051	0.42 ± 0.087	0.265 ± 0.044	0.246 ± 0.031
BT549 BREAST	1.09 ± 0.18	1.02 ± 0.12	0.952 ± 0.095	0.939 ± 0.14	0.569 ± 0.085	0.381 ± 0.035	0.12 ± 0.013	0.0733 ± 0.0021	1.06 ± 0.11	1.03 ± 0.032	1.03 ± 0.02	0.763 ± 0.22	0.699 ± 0.016	0.244 ± 0.073	0.136 ± 0.017	0.247 ± 0.29
C33A CERVIX	0.778 ± 0.031	0.943 ± 0.09	0.789 ± 0.075	0.923 ± 0.073	0.614 ± 0.043	0.482 ± 0.012	0.156 ± 0.024	0.101 ± 0.018	0.941 ± 0.029	0.984 ± 0.064	1.01 ± 0.098	0.993 ± 0.081	0.62 ± 0.043	0.349 ± 0.031	0.15 ± 0.016	0.14 ± 0.011
CADOES1 SOFT TISSUE	0.956 ± 0.11	0.921 ± 0.061	0.911 ± 0.058	0.781 ± 0.045	0.633 ± 0.11	0.49 ± 0.025	0.193 ± 0.033	0.12 ± 0.0096	0.965 ± 0.1	0.996 ± 0.098	0.897 ± 0.03	0.99 ± 0.078	0.531 ± 0.11	0.28 ± 0.063	0.128 ± 0.007	0.0853 ± 0.01
CAL51 BREAST	0.988 ± 0.062	0.901 ± 0.047	0.943 ± 0.064	0.91 ± 0.053	0.731 ± 0.023	0.442 ± 0.035	0.123 ± 0.0027	0.0447 ± 0.0022	0.92 ± 0.025	0.958 ± 0.035	0.902 ± 0.086	0.894 ± 0.056	0.453 ± 0.032	0.279 ± 0.018	0.097 ± 0.005	0.0853 ± 0.0042
